# Where two headings read alike, the source gives them in different places.
# Columns and labels:
# [1] = system: SARS-CoV-2 minigene mRNA (5′ and 3′ UTRs, Gaussia luciferase); experiment: SARS-CoV-2 minigene HEK293 cell model, RT-qPCR of viral minigene mRNA; assay type: cell-based; conditions: 24 hours
# [2] = system: SARS-CoV-2 5′ UTR; experiment: SARS-CoV-2 5′ UTR expressing 293T cells (Gaussia luciferase cassette), RNA reduction; assay type: cell-based
# [3] = target: von Hippel-Lindau (VHL) E3 ligase (Homo sapiens, UniProt P40337); conditions: cited from earlier work
# Chain of von Hippel-Lindau (VHL) E3 ligase (P40337 54-213 limits assumed, species assumed): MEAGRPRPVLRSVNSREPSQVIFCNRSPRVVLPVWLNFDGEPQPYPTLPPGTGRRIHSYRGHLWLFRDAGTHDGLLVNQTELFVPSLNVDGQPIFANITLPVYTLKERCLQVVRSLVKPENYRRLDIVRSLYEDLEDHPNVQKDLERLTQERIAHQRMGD
# Chain of von Hippel-Lindau (VHL) E3 ligase (Q15369 17-112 partner limits assumed, species assumed): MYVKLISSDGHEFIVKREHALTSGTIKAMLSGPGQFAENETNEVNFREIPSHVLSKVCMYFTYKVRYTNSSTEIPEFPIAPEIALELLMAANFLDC
# Chain of von Hippel-Lindau (VHL) E3 ligase (Q15370 whole entry partner, species assumed): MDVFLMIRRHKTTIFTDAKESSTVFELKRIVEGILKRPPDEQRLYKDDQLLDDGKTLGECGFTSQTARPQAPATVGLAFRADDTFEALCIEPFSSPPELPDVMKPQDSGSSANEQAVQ
# [4] = system: gene splicing; conditions: cited from earlier work
# [5] = in vitro; conditions: human
# [6] = in vitro; conditions: human; remark: listed apart in the source
# [7] = in vitro; conditions: human; remark: listed apart in the source
# [8] = target: 5′-biotinylated RNA Seq4; experiment: Surface plasmon resonance (SPR) assay, RNA Seq4; assay type: binding; conditions: footnote b: SPR assay for RNA Seq4
# Description: SPR experiments were performed on a Biacore T200 (GE Healthcare) instrument at 25° C. using streptavidin pre-coated SA sensor chips (GE Healthcare). The running buffer composed of 10 mM HEPES, 100 mM NaCl, 0.05% Tween 20 (w/v), 5 mM EDTA, 0.1% (v/v) DMSO at pH 6.8 was prepared freshly, filtered through the […] PVDF membrane prior to use. 5′-biotinylated RNA Seq4 was purchased from GenScript and dissolved in nuclease-free water to a concentration of 100 μM. For immobilization of the biotinylated RNA, the sensor chip was firstly conditioned with 3 consecutive 1 min injections of high salt solution (50 mM NaOH, 1M NaCl) at a flow rate of […]. Next, the biotinylated RNA was diluted 1000× in running buffer (100 nM) and applied over the streptavidin sensor chip surface at a flow rate of 10 μL/min to achieve immobilization level of about 800 RU. Finally, alkyne-PEG-biotin (50 μM in running buffer) was injected (1 min, […]) to block remaining streptavidin surface binding sites. The kinetics analysis was performed following the BiaControl Software Wizard Kinetics protocol. […] All monitored resonance signals were subtracted with signals from a non-binding reference channel. Kinetic values (Kd, ka, kd) were calculated using the BiaEvaluation Software Binding Affinity protocol with 1:1 fitting. […]
# [9] = target: DNA Seq6; experiment: Competitive FP binding assay (displacement of SMN-C2 from DNA Seq6); conditions: footnote c: FP assay for DNA Seq6; competition with SMN-C2 (0.5 μM) and DNA Seq6 (25 μM); read-out: Kd (apparent, competitive FP)
# Description: (§1) A 1:2 dilution series (8 points) of each oligonucleotide was prepared in 20-30 μL water to desired concentrations (i.e., 1-128 μM). 20-30 μL 2× working solution containing the 2× assay buffer and the small-molecule ligand was added to each oligonucleotide sample in 1:1 (v/v) and mixed by pipetting for 4 times. For fluorescence polarization measurement, 20 μL of the above 1× working solution was transferred into a 384-well, black, F-bottom microplates (Greiner Bio-One) in duplicates or triplicates. The plate was equilibrated at room temperature for 5 min before being read using a microplate reader (SYNERGY H1, BioTek; Excitation/Emission=360/460 nm) at 25° C. For compound SMN-C5, a competitive binding assay was employed to measure an apparent Kd. SMN-C5 was 1:2 serial diluted for 10 concentration points starting at 750 μM in DMSO. A mixture of SMN-C2 (0.5 μM) and DNA Seq6 (25 μM) in 1× assay buffer was prepared and incubated at room temperature for 10 minutes. 3 μL of SMN-C5 solution at each concentration was added to a 42 μL SMN-C2/DNA Seq6 mixture and incubated at room temperature for 10 minutes. The mixture was then transferred into a microplate (20 μL each well) in duplicates for fluorescence polarization readout. The experimental data were analyzed using Prism 8 software (Graphpad Software, San Diego, CA, USA).
# [10] = system: SMN2 exon 7 splicing; experiment: Cell-based SMN2 splicing assay in 293T cells (minigene); design: species or system human; conditions: Homo sapiens, HEK-293T
# [11] = target: dsRNA Seq18 (5′ splice site of SMN2 exon 7 and U1 snRNA duplex); conditions: NMR chemical shift assay; cited from earlier work
# [12] = system: SMN2 gene vs forkhead box M1 (FoxM1) gene; conditions: cited from earlier work
# [13] = target: COVID RNA (SARS-CoV-2 RNA SL5 per FIG. 8); experiment: FP binding, Kd for COVID RNA
# [14] = system: SARS-CoV-2 SL5 RNA; experiment: Deconvolution of the RNA-binding site within SL5; conditions: FIG. 7D
# [15] = target: DNA Seq6 (UGAAGGAAGGU as deoxyribonucleotides); experiment: FP binding assay, DNA Seq6; conditions: footnote c: FP assay for DNA Seq6; range = 95% CI; read-out: Kd
# Description: (§2) All synthetic DNA and RNA oligomers were purchased from Integrated DNA Technologies and reconstituted in nuclease-free water (Invitrogen #AM9932) at 1 mM. The concentration of the oligonucleotides at ˜0.1 mM was calibrated with the A260 value measured by a NanoDrop ND-1000 (Thermo, Waltham, MA, USA) and the predicted extinction coefficient (http://www.oligoevaluator.com) using Lamber-Beer's Law. The risdiplam analogues (1 mM in DMSO) were diluted in 2× assay buffer (40 mM HEPES, 200 mM NaCl for RNA; 40 mM HEPES, 200 mM NaCl, 1 mM MgCl2 for DNA) to make a 1 μM 2× working solution.
# as §1
# [16] = target: RNA Seq4 […]; experiment: FP binding assay, RNA Seq4
# Description: as §2, §1
# [17] = system: seq 1 (GAUGGAGAG), contains the AUG start codon; experiment: FP binding assay, SARS-CoV-2 seq 1 (start codon)
# [18] = system: seq 1-RC; experiment: FP binding assay, reverse complement of seq 1
# [19] = cell-based SMN2 splicing assay in 293T cells, read-out: SMN2 EC50
smiles,measurement,setting,value
CCOC(=O)C1=C(Nc2ccccc2)S/C(=C\c2ccc(OCCOCCn3cc(COCCOCCOCCOCCN4CCN(c5ccc6cc(-c7cn8ccc(F)cc8n7)c(=O)oc6c5)CC4)nn3)c(O)c2)C1=O [Compound C47],reduction of viral minigene mRNA level,"[1]; 25 μM, normalized with GAPDH",~50%
same,effect on RNA level (RT-qPCR),[1]; different concentrations,reduce the RNA level in a dose-dependent manner
same,maximum potency / activity (RNA reduction level),[2],between those of C64 and C65
Cc1cc([C@H](C(=O)N2C[C@H](O)C[C@H]2C(=O)N[C@@H](CC(=O)N2CCC(C#Cc3ccc(C(=O)N[C@H]4C(C)(C)[C@H](Oc5ccc(C#N)c(Cl)c5)C4(C)C)cc3)CC2)c2ccccc2)C(C)C)on1 [ARD-266],Kd,[3],micromolar
"CCN1CCN(c2cc(C)c3nc(-c4cc5c(C)nc(C)cn5n4)cc(=O)n3c2)CC1 [Compound C3, 2-(4,6-dimethylpyrazolo[1,5-a]pyrazin-2-yl)-7-(4-ethylpiperazin-1-yl)-9-methyl-4H-pyrido[1,2-a]pyrimidin-4-one, reference compound]",number of genes whose splicing is significantly affected,[4],13 genes
same,CC50,[5],> 30000 nM
same,CC50,[6],> 30000 nM
same,CC50,[7],> 30000 nM
"Cc1cn2cc(-c3cc(=O)n4cc(N5CCN(C)CC5)ccc4n3)cc(F)c2n1 [SMN-C5, 2-(8-fluoro-2-methylimidazo[1,2-a]pyridin-6-yl)-7-(4-methylpiperazin-1-yl)-4H-pyrido[1,2-a]pyrimidin-4-one]",Kd,[8],8000 nM
same,Kd,[9],5800 ± 2500 nM
same,EC50,[10]; [19],59 ± 9 nM
same,Kd,[11],28000 ± 9000 nM
CCc1nc(C)cn2nc(-c3cc(=O)n4cc(C5CCN(C)CC5)cc(C)c4n3)cc12 [RG-7800],sensitivity of SMN2 gene compared to FoxM1,[12],~10 times
"O=c1oc2cc(N3CCNCC3)ccc2cc1-c1cn2ccc(F)cc2n1 [Compound C30, 3-(7-fluoroimidazo[1,2-a]pyridin-2-yl)-7-(piperazin-1-yl)-2H-chromen-2-one]",Kd,[13]; Table 3,210 ± 40 nM
same,Kd,[13]; Table 4,210 ± 400 nM
same,binding site within SL5,[14],selectively binds to the RNA structure containing the bulged G in SL5
"Cc1cn2cc(-c3cc4ccc(N5CCN[C@@H](C)C5)cc4oc3=O)nc2c(C)n1 [Compound C4, (S)-3-(6,8-dimethylimidazo[1,2-a]pyrazin-2-yl)-7-(3-methylpiperazin-1-yl)-2H-chromen-2-one, reference compound]",Kd,[15],2900 ± 300 nM
same,Kd,[16],25400 ± 7300 nM
same,EC50,"[10]; Table 3, read-out: SMN2 Splicing EC50",13.9 ± 2.6 nM
same,EC50,[10]; [19],14 ± 3 nM
same,Kd,[13]; Table 3,1300 ± 300 nM
same,Kd,[13]; Table 4,1300 ± 300 nM
same,binding to seq 1,[17],preferentially binds to seq 1
same,binding to seq 1-RC,[18],does not bind
same,CC50,[7],> 13000 nM

# Reference: patent US20250368651A1 (priority 2022, published 2025)
